The record followed here is ChEMBL document CHEMBL1121981, “Synthesis and biological evaluation of a metazocine-containing enkephalinamide. Evidence for nonidentical roles of the tyramine moiety in opiates and opioid peptides” (J Med Chem, 1982).

pIC50: −log10 of the molar value. Calls of active or inactive are those of the source. No cut-off for these calls is given here.

In one assay the target is Mu-type opioid receptor (Cavia porcellus) (UniProt P97266). The assay can be described thus: Mu opioid receptor agonist activity was determined by inhibition of electrically stimulated myenteric plexus in guinea pig ileum; Inactive, weak antagonism with agonist morphine PA2 of <6. Type of assay: functional, tissue-based. Particulars: filed as antagonist.
Chain of Mu-type opioid receptor (Cavia porcellus) (P97266 whole entry): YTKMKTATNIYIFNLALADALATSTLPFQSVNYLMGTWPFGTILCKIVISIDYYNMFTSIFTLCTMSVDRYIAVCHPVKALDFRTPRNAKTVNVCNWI
As for `CSCC[C@@H](NC(=O)[C@H](Cc1ccccc1)NC(=O)CNC(=O)CNC(=O)C12Cc3ccc(O)cc3C(C)(CCN1C)C2C)C(N)=O` (single isomer, unassigned; (-)), the Relative potency result is listed as “Partial antagonist”.

The next assay shares this target. The assay is described as follows: Mu opioid receptor agonist activity was determined by inhibition of electrically stimulated myenteric plexus in guinea pig ileum; Inactive. It counts as functional, tissue-based.
Details: not given
For the molecule `CSCC[C@@H](NC(=O)[C@H](Cc1ccccc1)NC(=O)CNC(=O)CNC(=O)C12Cc3ccc(O)cc3C(C)(CCN1C)C2C)C(N)=O` (single isomer, unassigned; (+)), the Relative potency result was “inactive”. On the same count and under the same terms, to `CC1C2(C)CCN(C)C1(C#N)Cc1ccc(O)cc12` (racemic) belongs “inactive”; to `CC1C2(C)CCN(C)C1(C(N)=O)Cc1ccc(O)cc12` (configuration not stated), “inactive”.

In the case of `CSCC[C@@H](NC(=O)[C@H](Cc1ccccc1)NC(=O)CNC(=O)CNC(=O)C1CC2(C)c3cc(O)ccc3CC(C2C)N1C)C(N)=O` (single isomer, unassigned; (+)), the Relative potency entry is “inactive”. For `CC1C2Cc3ccc(O)cc3C1(C)CC(C(N)=O)N2C` (single isomer, unassigned; (+)), the Relative potency result is “inactive”.

Another assay deals with Mu-type opioid receptor (Cavia porcellus, UniProt P97266). The assay is described as follows: Mu opioid receptor agonist activity as inhibition of electrically stimulated mysenteric plexus in guinea pig ileum. Type of assay: functional, tissue-based.
Chain of Mu-type opioid receptor (P97266 whole entry): as above
Details: not given
`CC1C2Cc3ccc(O)cc3C1(C)CC(C#N)N2C` (single isomer, unassigned; form 1) showed a negative-log IC50 (pIC50) of 6.29. On the same count and under the same terms, to `CC1C2(C)CCN(C)C1(C(N)=O)Cc1ccc(O)cc12` (single isomer, unassigned; (-)) [listing 1 of 2 here] belongs 5.55; to `CC1C2Cc3ccc(O)cc3C1(C)CC(C(N)=O)N2C` (single isomer, unassigned; (-)) [listing 1 of 2 here], 5.22; to `C[C@H]1[C@@H]2Cc3ccc(O)cc3[C@]1(C)CCN2C` [METAZOCINE], 7.03. The same measure, in the same setting: to `CSCC[C@H](NC(=O)[C@H](Cc1ccccc1)NC(=O)CNC(=O)CNC(=O)C1CC2(C)c3cc(O)ccc3CC(C2C)N1C)C(N)=O` (some centres not stated) belongs 5.10; to `CC1C2Cc3ccc(O)cc3C1(C)CC(C#N)N2C` (single isomer, unassigned; form 2), 6.29.

The molecule `CSCC[C@H](NC(=O)[C@H](Cc1ccccc1)NC(=O)CNC(=O)[C@@H](C)NC(=O)[C@@H](N)Cc1ccc(O)cc1)C(N)=O` gave a negative-log IC50 (pIC50) of 7.76. Against the preceding molecule, the pIC50 is 1.47 log units higher.

The next assay addresses Mu-type opioid receptor (Cavia porcellus) (UniProt P97266). The assay can be described thus: Mu opioid receptor agonist activity was determined by inhibition of electrically stimulated myenteric plexus in guinea pig ileum. Type of assay: functional, tissue-based.
Details: not given
`CC1C2(C)CCN(C)C1(C(N)=O)Cc1ccc(O)cc12` (single isomer, unassigned; (-)) [listing 2 of 2 here] returned a Relative potency of 0.02.

With `CSCC[C@@H](NC(=O)[C@H](Cc1ccccc1)NC(=O)CNC(=O)CNC(=O)C1CC2(C)c3cc(O)ccc3CC(C2C)N1C)C(N)=O` (some centres not stated), the Relative potency turned out to be 0.007. Still for that read-out and setting: to `CC1C2Cc3ccc(O)cc3C1(C)CC(C(N)=O)N2C` (single isomer, unassigned; (-)) [listing 2 of 2 here] belongs 0.009; to `CSCC[C@H](NC(=O)[C@H](Cc1ccccc1)NC(=O)CNC(=O)[C@@H](C)NC(=O)[C@@H](N)Cc1ccc(O)cc1)C(N)=O`, 329.

As usually defined, the pIC50 is the IC50 on a negative log10 scale, so that one unit is a factor of ten.
